Results from US8067447B2, “Modulators of glucocorticoid receptor, AP-1, and/or NF-κB activity and use thereof” (Bristol-Myers Squibb Company, priority 2006, dated 2011).
Read-outs that look alike come from different tables or passages of the source.

Experiments:
[1] = molecular target: T1, human glucocorticoid receptor (Homo sapiens, UniProt P04150); test: Glucocorticoid Receptor Binding Assay (I), fluorescence polarization competitor kit (Fluormone GS Red); details: purified human recombinant full-length GR 2 nM, 1 nM Fluormone GS Red, FP
T1 construct: purified human recombinant full-length glucocorticoid receptor (2 nM); purchased Invitrogen Part #2893
T1 sequence (P04150 1-777): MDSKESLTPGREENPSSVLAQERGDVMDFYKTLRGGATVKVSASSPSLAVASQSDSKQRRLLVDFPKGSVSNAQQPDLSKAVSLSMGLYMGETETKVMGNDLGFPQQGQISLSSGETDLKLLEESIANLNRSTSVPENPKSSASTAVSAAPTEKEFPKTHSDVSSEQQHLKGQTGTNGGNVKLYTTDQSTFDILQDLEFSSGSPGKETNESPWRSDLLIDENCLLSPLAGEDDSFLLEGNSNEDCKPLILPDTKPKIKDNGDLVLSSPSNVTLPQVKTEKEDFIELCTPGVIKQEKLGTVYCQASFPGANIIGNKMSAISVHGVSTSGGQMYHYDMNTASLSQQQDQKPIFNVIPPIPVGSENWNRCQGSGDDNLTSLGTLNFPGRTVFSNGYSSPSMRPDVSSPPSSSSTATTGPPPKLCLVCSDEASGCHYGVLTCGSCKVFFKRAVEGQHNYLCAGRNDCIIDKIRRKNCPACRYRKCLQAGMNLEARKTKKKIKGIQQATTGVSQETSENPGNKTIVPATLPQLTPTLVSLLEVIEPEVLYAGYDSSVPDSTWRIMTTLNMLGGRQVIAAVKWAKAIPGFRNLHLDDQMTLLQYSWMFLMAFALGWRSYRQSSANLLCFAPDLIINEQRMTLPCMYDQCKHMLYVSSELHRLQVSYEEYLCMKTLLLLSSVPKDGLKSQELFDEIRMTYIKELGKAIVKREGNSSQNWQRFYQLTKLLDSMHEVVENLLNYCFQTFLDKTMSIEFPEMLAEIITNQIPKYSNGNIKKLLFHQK
Procedure: Briefly, purified human recombinant full-length glucocorticoid receptor (2 nM) was mixed with fluorescently labeled glucocorticoid (1 nM Fluormone GS Red) in the presence or absence of test compound. After two hour incubation at room temperature in the dark, the fluorescence polarization (FP) of the samples was measured. […] Test compounds were analyzed in the concentration range from 8.5E-05 μM to 5 μM.

[2] = system: AP-1 induced transcriptional activity; test: Cellular Transrepressional Assay (AP-1 luciferase reporter in A549 cells, PMA-activated); type: cell-based; details: A549 cells with 7x AP-1 luciferase reporter, 10 ng/ml PMA, read-out: AP-1 (EC50, nM) (Cellular Transrepression Assay)
Procedure: To measure the ability of test molecules to inhibit AP-1 induced transcriptional activity an A549 cell was utilized which was stably transfected with a plasmid containing 7× AP-1 DNA binding sites (pAP-1-Luc plasmid, Stratagene Co. La Jolla, Calif.) followed by the gene for luciferase. Cells were activated with 10 ng/ml of […] (PMA) plus or minus test molecules for 7 hours. After 7 hours a luciferase reagent was added to measure luciferase enzymatic activity in the cell. After a 10 minute incubation of luciferase reagent with cells, luminescence was measured in a TopCount luminescence counter. Repression of AP-1 activity was calculated as the percentage decrease in the signal induced by PMA alone. Test molecules were analyzed in the concentration range from 0.1 nM to 40 μM. EC50s were determined by using standard curve fitting methods such as Excel fit (Microsoft Co.).

[3] = read-out: GR (Ki, nM) (GR Binding Assay (I))

## CSc1nnc(NC(=O)C(C)(C)C(c2ccccc2)c2ccc3c(cnn3-c3ccc(F)cc3)c2)s1 (stereo not drawn) [Example 22, 3-(1-(4-fluorophenyl)-1H-indazol-5-yl)-2,2-dimethyl-N-(5-(methylthio)-1,3,4-thiadiazol-2-yl)-3-phenylpropanamide]
[1]; [3]
  Ki: 29 nM
[2]; Homo sapiens, A549, 7 h
  EC50: 840 nM

## O=C(CC(c1ccccc1)c1ccc2c(cnn2-c2ccc(F)cc2)c1)Nc1nncs1 (single isomer, unassigned) [136-enant A, 3-(1-(4-Fluorophenyl)-1H-indazol-5-yl)-3-phenyl-N-(1,3,4-thiadiazol-2-yl)propanamide]
[1]; [3]
  Ki: 23 nM
[2]; 7 hours
  EC50: > 10000 nM

## CC(C)(C(=O)Nc1nccs1)C(c1ccccc1)c1ccc2c(cnn2-c2cccnc2)c1 (stereo not drawn) [Example 85, 2,2-dimethyl-3-phenyl-3-(1-(pyridin-3-yl)-1H-indazol-5-yl)-N-(thiazol-2-yl)propanamide]
[1]; GR (Ki, nM) (GR Binding Assay (I))
  Ki: 7.8 nM
[2]; Homo sapiens, A549, 7 h
  EC50: 40 nM

## CC(C)(C(=O)Nc1nncs1)C(C)(C)c1ccc2c(cnn2-c2ccc(F)cc2)c1 [Example 120, 3-(1-(4-fluorophenyl)-1H-indazol-5-yl)-2,2,3-trimethyl-N-(1,3,4-thiadiazol-2-yl)butanamide]
[1]; [3]
  Ki: 5.8 nM
[2]; Homo sapiens, A549, 7 h
  EC50: 74 nM

## CC(C)(C(=O)Nc1nccs1)C(c1ccccc1)c1ccc2c(cnn2-c2ccccn2)c1 (stereo not drawn) [Example 79, 2,2-dimethyl-3-phenyl-3-(1-(pyridin-2-yl)-1H-indazol-5-yl)-N-(thiazol-2-yl)propanamide]
[1]; [3]
  Ki: 10 nM
[2]; Homo sapiens, A549, 7 h
  EC50: 2480 nM

## Cc1cnc(NC(=O)C(C)(C)C(c2ccccc2)c2ccc3c(cnn3-c3ccc(F)cc3)c2)s1 (stereo not drawn) [Example 17, 3-(1-(4-fluorophenyl)-1H-indazol-5-yl)-2,2-dimethyl-N-(5-methylthiazol-2-yl)-3-phenylpropanamide]
[1]; [3]
  Ki: 11 nM
[2]; Homo sapiens, A549, 7 h
  EC50: 49 nM

## CC(C)CCn1cc2cc(C(c3ccccc3)C(C)(C)C(=O)Nc3nncs3)ccc2n1 (stereo not drawn) [Example 67, 3-(2-isopentyl-2H-indazol-5-yl)-2,2-dimethyl-3-phenyl-N-(1,3,4-thiadiazol-2-yl)propanamide]
[1]; [3]
  Ki: 25 nM
[2]; Homo sapiens, A549, 7 h
  EC50: 532 nM

## CC(C)(C(=O)Nc1nncs1)C(c1ccccc1)c1ccc2c(cnn2CCc2ccccc2)c1 (stereo not drawn) [Example 74, 2,2-dimethyl-3-(1-phenethyl-1H-indazol-5-yl)-3-phenyl-N-(1,3,4-thiadiazol-2-yl)propanamide]
[1]; [3]
  Ki: 152 nM
[2]; Homo sapiens, A549, 7 h
  EC50: > 10000 nM

## CC(C)(C(=O)Nc1nncs1)C(c1ccccc1)c1ccc2c(cnn2CCO)c1 (stereo not drawn) [Example 65, 3-(1-(2-hydroxyethyl)-1H-indazol-5-yl)-2,2-dimethyl-3-phenyl-N-(1,3,4-thiadiazol-2-yl)propanamide]
[1]; [3]
  Ki: 47 nM
[2]; Homo sapiens, A549, 7 h
  EC50: 550 nM

## CC(C)(C(=O)Nc1nncs1)C(c1ccccc1)c1ccc2c(cnn2-c2ccc(Cl)cc2)c1 (stereo not drawn) [Example 93, 3-(1-(4-chlorophenyl)-1H-indazol-5-yl)-2,2-dimethyl-3-phenyl-N-(1,3,4-thiadiazol-2-yl)propanamide]
[1]; [3]
  Ki: 18 nM
[2]; Homo sapiens, A549, 7 h
  EC50: 32 nM

## CC(C)(C(=O)Nc1nccs1)C(c1ccccc1)c1ccc2c(cnn2CS(C)(=O)=O)c1 (stereo not drawn) [Example 60, 2,2-dimethyl-3-(1-(methylsulfonylmethyl)-1H-indazol-5-yl)-3-phenyl-N-(thiazol-2-yl)propanamide]
[1]; [3]
  Ki: 29 nM
[2]; Homo sapiens, A549, 7 h
  EC50: > 10000 nM

## CCc1nnc(NC(=O)C(C)(C)C(c2ccccc2)c2ccc3c(cnn3-c3ccc(F)cc3)c2)s1 (stereo not drawn) [Example 20, N-(5-ethyl-1,3,4-thiadiazol-2-yl)-3-(1-(4-fluorophenyl)-1H-indazol-5-yl)-2,2-dimethyl-3-phenylpropanamide]
[1]; [3]
  Ki: 10 nM
[2]; Homo sapiens, A549, 7 h
  EC50: > 10000 nM

## CC(C)(C(=O)Nc1nccs1)C(c1ccccc1)c1ccc2c(ccn2-c2ccc(F)cc2)c1 (stereo not drawn) [Example 110, 3-(1-(4-Fluorophenyl)-1H-indol-5-yl)-2,2-dimethyl-3-phenyl-N-(thiazol-2-yl)propanamide]
[1]; [3]
  Ki: 13 nM
[2]; Homo sapiens, A549, 7 h
  EC50: 220 nM

## CC(C)(C(=O)Nc1nccs1)C(c1ccccc1)c1ccc2[nH]c(-c3nccs3)cc2c1 (stereo not drawn) [Example 117, 2,2-dimethyl-3-phenyl-N-(thiazol-2-yl)-3-(2-(thiazol-2-yl)-1H-indol-5-yl)propanamide]
[1]; [3]
  Ki: 57 nM
[2]; Homo sapiens, A549, 7 h
  EC50: 3610 nM

## CC(C)(C(=O)Nc1nccs1)C(c1ccccc1)c1ccc2c(cnn2C2CCOCC2)c1 (stereo not drawn) [Example 58, 2,2-dimethyl-3-phenyl-3-(1-(tetrahydro-2H-pyran-4-yl)-1H-indazol-5-yl)-N-(thiazol-2-yl)propanamide]
[1]; [3]
  Ki: 10 nM
[2]; Homo sapiens, A549, 7 h
  EC50: 177 nM

## Cc1ccc(-c2cc3cc(C(c4ccccc4)C(C)(C)C(=O)Nc4nccs4)ccc3[nH]2)cc1 (stereo not drawn) [Example 119, 2,2-dimethyl-3-phenyl-N-(thiazol-2-yl)-3-(2-p-tolyl-1H-indol-5-yl)propanamide]
[1]; [3]
  Ki: 146 nM
[2]; Homo sapiens, A549, 7 h
  EC50: 2130 nM

## CC(C)(C(=O)Nc1nncs1)C(c1ccccc1)c1ccc2c(cnn2-c2ccc(C(F)(F)F)cc2)c1 (stereo not drawn) [Example 90, 2,2-dimethyl-3-phenyl-N-(1,3,4-thiadiazol-2-yl)-3-(1-(4-(trifluoro-methyl)phenyl)-1H-indazol-5-yl)propanamide]
[1]; [3]
  Ki: 85 nM
[2]; Homo sapiens, A549, 7 h
  EC50: > 10000 nM

## CC(C)(C(=O)Nc1nccs1)C(c1ccccc1)c1ccc2[nH]c(-c3ccccn3)cc2c1 (single isomer, unassigned) [111-enant A, 2,2-Dimethyl-3-phenyl-3-(2-(pyridin-2-yl)-1H-indol-5-yl)-N-(thiazol-2-yl)propanamide]
[1]; [3]
  Ki: 73 nM
[2]; Homo sapiens, A549, 7 h
  EC50: 1090 nM

## CC(C)(C(=O)NCC(F)(F)F)C(c1ccccc1)c1ccc2c(cnn2-c2ccc(F)cc2)c1 (stereo not drawn) [Example 8, 3-(1-(4-fluorophenyl)-1H-indazol-5-yl)-2,2-dimethyl-3-phenyl-N-(2,2,2-trifluoroethyl)prop-anamide]
[1]; [3]
  Ki: 3 nM
[2]; Homo sapiens, A549, 7 h
  EC50: 1800 nM

## CC(C)(C(=O)Nc1nccs1)C(c1ccccc1)c1ccc2[nH]c(-c3ccncc3)cc2c1 (stereo not drawn) [Example 115, 2,2-dimethyl-3-phenyl-3-(2-(pyridin-4-yl)-1H-indol-5-yl)-N-(thiazol-2-yl)propanamide]
[1]; [3]
  Ki: 26 nM
[2]; Homo sapiens, A549, 7 h
  EC50: 3640 nM

## Cc1nnc(NC(=O)C(C)(C)C(c2ccccc2)c2ccc3c(cnn3-c3ccc(F)cc3)c2)s1 (stereo not drawn) [Example 18, 3-(1-(4-fluorophenyl)-1H-indazol-5-yl)-2,2-dimethyl-N-(5-methyl-1,3,4-thiadiazol-2-yl)-3-phenylpropanamide]
[1]; [3]
  Ki: 21 nM
[2]; Homo sapiens, A549, 7 h
  EC50: 141 nM

## CC(C)n1ncc2cc(C(c3ccccc3)C(C)(C)C(=O)Nc3nccs3)ccc21 (stereo not drawn) [Example 61, 3-(1-isopropyl-1H-indazol-5-yl)-2,2-dimethyl-3-phenyl-N-(thiazol-2-yl)propanamide]
[1]; [3]
  Ki: 14 nM
[2]; Homo sapiens, A549, 7 h
  EC50: 158 nM

## CC(C)(C(=O)Nc1cc(O)[nH]n1)C(c1ccccc1)c1ccc2c(cnn2-c2ccc(F)cc2)c1 (stereo not drawn) [Example 15, 3-(1-(4-fluorophenyl)-1H-indazol-5-yl)-N-(5-hydroxy-1H-pyrazol-3-yl)-2,2-dimethyl-3-phenylpropanamide]
[1]; [3]
  Ki: 318 nM
[2]; Homo sapiens, A549, 7 h
  EC50: > 10000 nM

## CC(C(=O)Nc1nncs1)C(c1ccccc1)c1ccc2c(cnn2-c2ccc(F)cc2)c1 (single isomer, unassigned) [Example 141-isomerC, 3-(1-(4-Fluorophenyl)-1H-indazol-5-yl)-2-methyl-3-phenyl-N-(1,3,4-thiadiazol-2-yl)propanamide]
[2]; 7 hours
  EC50: 0.23 nM

## O=C(Nc1nccs1)C1CC1(c1ccccc1)c1ccc2c(cnn2-c2ccc(F)cc2)c1 (stereo not drawn) [Example 99, Cis-2-(1-(4-fluorophenyl)-1H-indazol-5-yl)-2-phenyl-N-(thiazol-2-yl)cyclopropanecarboxamide]
[2]; 7 hours
  EC50: > 10000 nM
